We go through one molecule from ChEMBL document CHEMBL5634174, “Biological evaluation of sulfonate and sulfate analogues of lithocholic acid: A bioisosterism-guided approach towards the discovery of potential sialyltransferase inhibitors for antimetastatic study” (Bioorg Med Chem Lett, 2024).

The term inhibition denotes the relative decrease from the control value, in per cent. Broadly, the IC50 is the midpoint of a concentration-inhibition curve. Low values mean greater potency, high ones weaker potency.

Active and inactive are the calls of the source. No cut-off for these calls is given here. Where only a bound is given, the exact number is not on record here.

In test [1] the target is Paxillin (Homo sapiens) (UniProt P49023). Nature of the test: Inhibition of paxillin phosphorylation at Y118 residue in human MDA-MB-231 cells at 80 uM incubated for 2 hrs by Western blot analysis. The format is cell-based. For orientation: A western blot detects proteins with antibodies after separation by electrophoresis.
Sequence of Paxillin (Homo sapiens) (P49023 whole entry): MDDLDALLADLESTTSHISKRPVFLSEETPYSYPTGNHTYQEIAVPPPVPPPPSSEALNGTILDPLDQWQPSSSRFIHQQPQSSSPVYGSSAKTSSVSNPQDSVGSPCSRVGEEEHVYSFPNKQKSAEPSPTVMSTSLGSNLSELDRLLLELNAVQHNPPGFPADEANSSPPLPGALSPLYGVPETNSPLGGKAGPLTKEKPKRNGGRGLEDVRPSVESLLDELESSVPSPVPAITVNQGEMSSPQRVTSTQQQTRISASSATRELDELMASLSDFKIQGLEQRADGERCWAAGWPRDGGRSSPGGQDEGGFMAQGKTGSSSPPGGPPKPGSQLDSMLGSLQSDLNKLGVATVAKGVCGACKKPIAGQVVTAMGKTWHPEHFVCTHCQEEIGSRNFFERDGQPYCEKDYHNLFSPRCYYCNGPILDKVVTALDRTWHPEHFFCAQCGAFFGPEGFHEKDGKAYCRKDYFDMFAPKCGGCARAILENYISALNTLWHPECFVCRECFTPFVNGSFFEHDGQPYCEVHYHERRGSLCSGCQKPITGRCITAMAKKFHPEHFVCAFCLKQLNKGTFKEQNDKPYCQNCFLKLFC
In test [2] the target is Integrin alpha-5 (Homo sapiens) (UniProt P08648). Nature of the test: Inhibition of integrin alpha-5 in human MDA-MB-231 cells assessed as decrease in sialylation level incubated for 48 hrs by Western blot analysis. It counts as cell-based. The conditions noted are these: dose 20-80 µM.
Sequence of Integrin alpha-5 (Homo sapiens) (P08648 42-894 limits assumed): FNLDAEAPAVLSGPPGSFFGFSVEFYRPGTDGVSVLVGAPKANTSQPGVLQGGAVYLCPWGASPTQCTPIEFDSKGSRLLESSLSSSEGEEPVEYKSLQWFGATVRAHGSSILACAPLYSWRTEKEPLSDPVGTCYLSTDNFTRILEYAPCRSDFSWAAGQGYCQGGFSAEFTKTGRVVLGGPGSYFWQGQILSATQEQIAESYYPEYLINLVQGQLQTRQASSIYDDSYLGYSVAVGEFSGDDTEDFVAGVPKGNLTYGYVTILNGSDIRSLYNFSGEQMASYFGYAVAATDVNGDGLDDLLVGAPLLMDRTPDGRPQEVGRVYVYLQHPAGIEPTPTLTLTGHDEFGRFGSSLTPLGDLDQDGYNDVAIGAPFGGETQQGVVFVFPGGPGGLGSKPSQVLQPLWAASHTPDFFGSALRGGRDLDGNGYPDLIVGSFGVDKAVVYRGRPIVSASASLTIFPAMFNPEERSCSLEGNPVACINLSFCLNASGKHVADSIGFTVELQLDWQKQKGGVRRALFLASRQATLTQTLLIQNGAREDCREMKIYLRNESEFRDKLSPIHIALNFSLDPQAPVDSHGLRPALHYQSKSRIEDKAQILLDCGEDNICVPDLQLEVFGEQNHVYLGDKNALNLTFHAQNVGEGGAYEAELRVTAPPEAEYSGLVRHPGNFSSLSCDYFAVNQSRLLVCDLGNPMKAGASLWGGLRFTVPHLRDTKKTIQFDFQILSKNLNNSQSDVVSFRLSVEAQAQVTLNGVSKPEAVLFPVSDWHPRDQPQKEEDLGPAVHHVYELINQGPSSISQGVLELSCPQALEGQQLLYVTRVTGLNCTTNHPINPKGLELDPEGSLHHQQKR
Sequence of Integrin alpha-5 (Homo sapiens) (P08648 895-1049 limits assumed): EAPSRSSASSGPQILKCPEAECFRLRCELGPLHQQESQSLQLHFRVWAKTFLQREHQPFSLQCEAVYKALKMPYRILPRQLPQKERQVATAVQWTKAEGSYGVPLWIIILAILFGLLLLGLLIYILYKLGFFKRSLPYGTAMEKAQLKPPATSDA
For test [3], the target named is T1, Beta-galactoside alpha-2,6-sialyltransferase 1 (Homo sapiens) (UniProt P15907).
T1 sequence (whole entry): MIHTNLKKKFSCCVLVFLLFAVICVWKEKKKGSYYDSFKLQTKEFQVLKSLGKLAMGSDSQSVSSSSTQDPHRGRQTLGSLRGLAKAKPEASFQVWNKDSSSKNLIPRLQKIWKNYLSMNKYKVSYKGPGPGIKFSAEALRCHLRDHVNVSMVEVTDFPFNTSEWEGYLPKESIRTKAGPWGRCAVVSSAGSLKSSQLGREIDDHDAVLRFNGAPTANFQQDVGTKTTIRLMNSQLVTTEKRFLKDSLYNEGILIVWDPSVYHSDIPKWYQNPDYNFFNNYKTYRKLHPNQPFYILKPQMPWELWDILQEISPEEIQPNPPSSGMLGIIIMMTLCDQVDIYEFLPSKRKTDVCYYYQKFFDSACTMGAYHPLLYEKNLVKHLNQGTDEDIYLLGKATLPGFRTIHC
Nature of the test: Inhibition of recombinant human N-terminal His tagged ST6GAL1 (44 to 406 residues) at 50 uM by UPLC-based assay relative to control.

The target in test [4] is T2, Integrin beta-5 (Homo sapiens) (UniProt P18084).
T2 sequence (whole entry): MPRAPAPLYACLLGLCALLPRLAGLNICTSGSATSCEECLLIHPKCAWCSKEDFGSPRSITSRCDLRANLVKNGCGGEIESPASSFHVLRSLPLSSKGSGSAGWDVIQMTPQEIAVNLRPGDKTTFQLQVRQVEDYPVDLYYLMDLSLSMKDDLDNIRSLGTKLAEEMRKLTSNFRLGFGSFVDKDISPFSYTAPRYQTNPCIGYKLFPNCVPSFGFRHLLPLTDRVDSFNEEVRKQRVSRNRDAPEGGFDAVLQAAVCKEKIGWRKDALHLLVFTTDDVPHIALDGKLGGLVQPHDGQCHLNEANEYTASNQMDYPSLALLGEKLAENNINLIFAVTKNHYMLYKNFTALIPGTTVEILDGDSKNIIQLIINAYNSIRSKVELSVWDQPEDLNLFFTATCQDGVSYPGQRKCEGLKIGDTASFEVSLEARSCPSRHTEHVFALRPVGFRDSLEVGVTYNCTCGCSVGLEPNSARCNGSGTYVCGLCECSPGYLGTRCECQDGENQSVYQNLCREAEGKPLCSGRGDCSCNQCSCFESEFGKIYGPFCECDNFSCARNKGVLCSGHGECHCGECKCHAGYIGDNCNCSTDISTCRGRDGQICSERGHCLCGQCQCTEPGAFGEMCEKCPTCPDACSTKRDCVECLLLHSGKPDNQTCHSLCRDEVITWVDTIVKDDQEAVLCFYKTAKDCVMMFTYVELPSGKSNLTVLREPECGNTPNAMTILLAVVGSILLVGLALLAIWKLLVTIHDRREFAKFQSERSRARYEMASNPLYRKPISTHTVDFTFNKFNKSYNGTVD
Briefly: Inhibition of integrin beta-5 in human MDA-MB-231 cells assessed as decrease in sialylation level incubated for 48 hrs by Western blot analysis. The format is cell-based. As to conditions: dose 20-80 µM.

The target in test [5] is Focal adhesion kinase 1 (Homo sapiens) (UniProt Q05397). Nature of the test: Inhibition of FAK phosphorylation at Y397 residue in human MDA-MB-231 cells at 80 uM incubated for 2 hrs by Western blot analysis. It counts as cell-based.
Sequence of Focal adhesion kinase 1 (Homo sapiens) (Q05397 2-1052 limits assumed): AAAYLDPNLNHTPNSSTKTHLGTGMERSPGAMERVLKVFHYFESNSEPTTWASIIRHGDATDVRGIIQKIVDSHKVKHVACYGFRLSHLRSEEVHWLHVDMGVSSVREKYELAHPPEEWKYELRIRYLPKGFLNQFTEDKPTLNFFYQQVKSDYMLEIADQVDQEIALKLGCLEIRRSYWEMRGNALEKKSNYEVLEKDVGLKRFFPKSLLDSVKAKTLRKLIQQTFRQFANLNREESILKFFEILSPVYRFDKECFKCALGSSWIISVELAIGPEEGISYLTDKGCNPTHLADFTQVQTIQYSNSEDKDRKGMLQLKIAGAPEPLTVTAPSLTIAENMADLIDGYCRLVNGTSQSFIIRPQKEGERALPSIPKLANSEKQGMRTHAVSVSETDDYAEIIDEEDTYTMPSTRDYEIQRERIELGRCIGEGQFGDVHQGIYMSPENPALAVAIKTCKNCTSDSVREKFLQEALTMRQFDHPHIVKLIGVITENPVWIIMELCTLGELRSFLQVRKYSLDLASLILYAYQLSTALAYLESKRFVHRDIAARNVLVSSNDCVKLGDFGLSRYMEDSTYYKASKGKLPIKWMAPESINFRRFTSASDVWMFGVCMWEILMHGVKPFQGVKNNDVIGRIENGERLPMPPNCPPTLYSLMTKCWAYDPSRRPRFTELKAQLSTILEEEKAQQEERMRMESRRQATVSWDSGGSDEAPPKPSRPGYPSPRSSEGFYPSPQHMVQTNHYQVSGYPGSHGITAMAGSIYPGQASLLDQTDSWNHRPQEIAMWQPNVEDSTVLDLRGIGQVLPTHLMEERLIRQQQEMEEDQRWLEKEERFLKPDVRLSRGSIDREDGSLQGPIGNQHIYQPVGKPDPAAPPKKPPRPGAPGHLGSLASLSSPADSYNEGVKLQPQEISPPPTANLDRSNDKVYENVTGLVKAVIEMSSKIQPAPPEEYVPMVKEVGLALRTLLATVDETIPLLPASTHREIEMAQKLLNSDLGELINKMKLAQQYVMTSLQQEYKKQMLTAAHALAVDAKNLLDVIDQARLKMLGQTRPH
Test [6] can be described thus: Selectivity index, ratio of IC50 for inhibition of rat ST3GAL1 to IC50 for inhibition of human ST6GAL1.
Test [7] addresses T3, Sialyltransferase ST3Gal-I (Rattus norvegicus) (UniProt Q6H8N0).
T3 sequence (whole entry): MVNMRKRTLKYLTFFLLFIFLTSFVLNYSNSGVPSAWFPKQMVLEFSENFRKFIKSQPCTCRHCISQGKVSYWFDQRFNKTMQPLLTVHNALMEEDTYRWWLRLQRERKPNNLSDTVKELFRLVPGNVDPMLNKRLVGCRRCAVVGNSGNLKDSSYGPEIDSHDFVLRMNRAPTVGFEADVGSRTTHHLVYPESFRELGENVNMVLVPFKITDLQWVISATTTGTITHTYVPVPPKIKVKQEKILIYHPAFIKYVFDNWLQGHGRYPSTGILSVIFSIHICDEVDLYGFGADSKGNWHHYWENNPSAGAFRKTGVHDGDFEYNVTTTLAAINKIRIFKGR
Nature of the test: Inhibition of rat ST3GAL1 at 1000 uM by UPLC-based assay relative to control.

Test [8] deals with Focal adhesion kinase 1 (Homo sapiens) (UniProt Q05397). Briefly: Inhibition of FAK phosphorylation at Y397 residue in human MDA-MB-231 cells incubated for 2 hrs by Western blot analysis. The format is cell-based. The conditions noted are these: dose 20-80 µM.
In test [9] the test system is MDA-MB-231. Briefly: Effect on total FAK expression level in human MDA-MB-231 cells at 20 to 80 uM incubated for 2 hrs by Western blot analysis. The format is functional, cell-based. As to conditions: dose 20-80 µM.
Test [10] addresses Integrin alpha-V (Homo sapiens) (UniProt P06756). Nature of the test: Inhibition of integrin alpha-v in human MDA-MB-231 cells assessed as decrease in sialylation level incubated for 48 hrs by Western blot analysis. It counts as cell-based. As to conditions: dose 20-80 µM.
Test [11] has as its target Integrin beta-1 (Homo sapiens) (UniProt P05556). Nature of the test: Inhibition of integrin beta-1 in human MDA-MB-231 cells assessed as decrease in sialylation level incubated for 48 hrs by Western blot analysis. The format is cell-based. As to conditions: dose 20-80 µM.
For test [12], the target named is T4, Sialyltransferase ST3Gal-I (Rattus norvegicus, UniProt Q6H8N0).
T4 sequence (Q6H8N0 whole entry): T3 sequence (whole entry)
Briefly: Inhibition of rat ST3GAL1 by UPLC-based assay.

Test [13] addresses Paxillin (Homo sapiens) (UniProt P49023). Nature of the test: Inhibition of paxillin phosphorylation at Y118 residue in human MDA-MB-231 cells incubated for 2 hrs by Western blot analysis. As to conditions: dose 20-80 µM. It counts as cell-based.
The test system of test [14] is MDA-MB-231. Briefly: Inhibition of cell invasion in human MDA-MB-231 cells at 60 uM. It counts as functional, cell-based.
For test [15], the target named is Focal adhesion kinase 1 (Homo sapiens) (UniProt Q05397). Nature of the test: Inhibition of FAK phosphorylation at Y576/577 residue in human MDA-MB-231 cells at 80 uM incubated for 2 hrs by Western blot analysis. It counts as cell-based.
Test [16] relates to MDA-MB-231. Briefly: Inhibition of cell invasion in human MDA-MB-231 cells assessed as reduction in cell adhesion to collagen IV at 60 uM incubated for 48 hrs. The format is functional, cell-based.
Test [17] has as its system MDA-MB-231. Nature of the test: Inhibition of cell invasion in human MDA-MB-231 cells assessed as reduction in cell adhesion to fibronectin at 60 uM incubated for 24 hrs. The format is functional, cell-based.
In test [18] the target is Integrin beta-4 (Homo sapiens) (UniProt P16144). Nature of the test: Inhibition of integrin beta-4 in human MDA-MB-231 cells assessed as decrease in sialylation level incubated for 48 hrs by Western blot analysis. The format is cell-based. The conditions noted are these: dose 20-80 µM.
Sequence of Integrin beta-4 (Homo sapiens) (P16144 whole entry): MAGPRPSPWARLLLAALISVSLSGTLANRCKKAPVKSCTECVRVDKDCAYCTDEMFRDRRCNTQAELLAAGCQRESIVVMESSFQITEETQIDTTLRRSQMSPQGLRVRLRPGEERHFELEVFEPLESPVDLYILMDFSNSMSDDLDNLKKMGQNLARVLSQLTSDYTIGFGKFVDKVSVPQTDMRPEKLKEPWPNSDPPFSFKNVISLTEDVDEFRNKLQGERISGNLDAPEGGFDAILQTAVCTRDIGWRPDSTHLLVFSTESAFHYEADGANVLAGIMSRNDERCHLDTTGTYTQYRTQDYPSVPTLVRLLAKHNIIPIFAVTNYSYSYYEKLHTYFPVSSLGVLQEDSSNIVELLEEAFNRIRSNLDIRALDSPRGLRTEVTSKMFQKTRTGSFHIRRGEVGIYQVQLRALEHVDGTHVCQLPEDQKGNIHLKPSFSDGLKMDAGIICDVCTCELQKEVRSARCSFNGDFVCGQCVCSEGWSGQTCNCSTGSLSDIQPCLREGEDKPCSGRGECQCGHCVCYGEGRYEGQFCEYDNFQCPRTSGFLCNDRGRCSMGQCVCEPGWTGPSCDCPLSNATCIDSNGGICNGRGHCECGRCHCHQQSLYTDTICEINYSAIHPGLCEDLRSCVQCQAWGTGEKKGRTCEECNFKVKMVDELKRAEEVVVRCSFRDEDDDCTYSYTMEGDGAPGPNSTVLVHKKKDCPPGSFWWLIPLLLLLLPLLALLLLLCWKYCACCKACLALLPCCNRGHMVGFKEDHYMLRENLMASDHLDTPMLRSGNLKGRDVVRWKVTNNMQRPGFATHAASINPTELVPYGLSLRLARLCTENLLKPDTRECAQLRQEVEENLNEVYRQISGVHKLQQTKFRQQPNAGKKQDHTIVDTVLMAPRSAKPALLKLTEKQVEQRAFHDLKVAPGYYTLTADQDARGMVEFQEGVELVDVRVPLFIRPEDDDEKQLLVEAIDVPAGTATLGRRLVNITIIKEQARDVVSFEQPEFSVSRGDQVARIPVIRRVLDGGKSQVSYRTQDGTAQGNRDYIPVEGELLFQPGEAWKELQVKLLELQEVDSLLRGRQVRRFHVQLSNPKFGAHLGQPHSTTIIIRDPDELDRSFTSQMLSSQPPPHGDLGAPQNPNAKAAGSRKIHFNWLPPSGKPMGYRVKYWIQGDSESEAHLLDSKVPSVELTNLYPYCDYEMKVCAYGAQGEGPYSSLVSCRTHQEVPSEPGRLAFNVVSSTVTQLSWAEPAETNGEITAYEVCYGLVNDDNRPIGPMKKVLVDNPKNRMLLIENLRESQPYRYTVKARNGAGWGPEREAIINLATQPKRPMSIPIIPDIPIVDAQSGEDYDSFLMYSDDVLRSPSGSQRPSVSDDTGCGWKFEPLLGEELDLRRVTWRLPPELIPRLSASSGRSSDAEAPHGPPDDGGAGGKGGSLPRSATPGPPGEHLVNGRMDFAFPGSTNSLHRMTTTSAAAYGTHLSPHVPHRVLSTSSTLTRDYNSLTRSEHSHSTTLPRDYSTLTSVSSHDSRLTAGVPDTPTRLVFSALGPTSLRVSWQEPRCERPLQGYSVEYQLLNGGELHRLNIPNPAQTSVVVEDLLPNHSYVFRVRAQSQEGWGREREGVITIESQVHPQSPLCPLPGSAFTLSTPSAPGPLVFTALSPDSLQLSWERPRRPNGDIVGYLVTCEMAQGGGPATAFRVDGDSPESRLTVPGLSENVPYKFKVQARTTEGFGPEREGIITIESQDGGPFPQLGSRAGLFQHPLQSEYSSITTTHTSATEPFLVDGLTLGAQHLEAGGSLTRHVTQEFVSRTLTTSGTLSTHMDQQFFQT
Test [19] has as its system MDA-MB-231. Briefly: Inhibition of cell invasion in human MDA-MB-231 cells assessed as reduction in cell adhesion at 60 uM after 48 hrs. It counts as functional, cell-based.

For `C[C@H](CCCOS(=O)(=O)O)[C@H]1CC[C@H]2[C@@H]3CC[C@@H]4C[C@H](O)CC[C@]4(C)[C@H]3CC[C@]12C`, the inhibition result (on Paxillin (Homo sapiens) [1]; in test [5]; in the test on MDA-MB-231 [14]; in test [15]; in the test on MDA-MB-231 [16]; with MDA-MB-231 [17]) was “Active” each time. For the same molecule, the Activity result in test [2], in test [4], in test [10], in test [11] and in test [18] was “Dose-Dependent Effect” each time. In addition, the inhibition in test [3] was 100%; in [7] it was 15%; in test [8], “Dose-Dependent Effect”; on Paxillin (Homo sapiens) [13] it was “Dose-Dependent Effect”. Besides, the Ratio IC50 in [6] is more than 60. Also, in the test on MDA-MB-231 [9], the outcome was inactive. This molecule also came in with an IC50 in [12] of more than 1000 µM. Moreover, in the test on MDA-MB-231 [19], the inhibition entry was “inactive”.
